59 compounds from patent US20040010036A1, “N,N, -Substituted s-Aryl-Isothioureas, N,N,N, -Substituted s-Aryl-Isothioureas and combinatorial libraries thereof” (priority 2002, published 2004) can be followed below.

Structures are written as SMILES.

This experiment concerns Streptococcus pyogenes (ATCC# 97-03 14289). Briefly: Anti-microbial screen (percent inhibition of growth, OD 570 nm). It counts as cell-based. Particulars: Conc 0.1776 mg ml. On the procedure: Streptococcus pyogenes (ATCC# 97-03 14289) was grown in Todd Hewitt Broth (THB) (Difco Laboratories #0492-17-6) overnight until reaching an optical density of (OD=0.636@570 nm) by reading 0.1 ml in a 96 well microtiter plate in a Molecular Devices Thermomax. This preparation was kept frozen as stocks in 30% v/v glycerol in 1.5 ml aliquots at […] until use. Prior to experiments, 6 ml aliquots were thawed and diluted into 50 ml 2×THB. 60 ul of this dilution was added to 92 wells of microtiter plate. To three wells THB (200 ul) was added to serve as a blank and a sterility control. Test compounds in DMSO and appropriate concentrations of DMSO were added to Growth/Solvent Controls at 0 time. Plates were read at 0 time at 570 nm in the Molecular Devices plate reader to obtain compounds correction factors for insoluble or colored compounds. Plates were read again at 4 hours.
Percent inhibition is calculated with the following formula:
Color correct=O.D. 0 hr - Blank 0 hr)-(Solvent Control Ohr - Blank 0 hr) [formula]

The mark [1] stands for this setting: Streptococcus pyogenes, Assay Spy4H, plates read at 570 nm at 0 time and at 4 hours.
Setting [2] is: Spy4H: Streptococcus pyogenes, read at 4 hours, OD 570 nm.

What is called inhibition of growth is the relative decrease from the control value, in per cent. Read a high inhibition of growth as a strong effect.

`COc1cccc(S/C(=N/c2ccc(Cl)c(C(F)(F)F)c2)N(CCc2ccc(Cl)cc2)Cc2ccc(O)cc2)c1` [Cmpd 393] had an inhibition of growth at 177.6 µg/mL under setting [1] of 54.5%. Under setting [1], `COc1cccc(S/C(=N\c2ccc(F)c(F)c2)N(CCc2ccc(Cl)cc2)Cc2ccc(O)cc2)c1` [Cmpd 396] returned an inhibition of growth at 177.6 µg/mL of 54.2%.

Compound `Cc1ccc(CN(Cc2cccc(O)c2)/C(=N/c2ccc(C(F)(F)F)cc2)Sc2ccc(C)cc2)cc1` [Cmpd 407] had an inhibition of growth at 177.6 µg/mL under setting [2] of 71.7%. As for `Cc1ccc(CN(Cc2cccc(O)c2)/C(=N/c2cc(Cl)cc(Cl)c2)Sc2ccc(C)cc2)cc1` [Cmpd 413], the inhibition of growth at 177.6 µg/mL under setting [2] amounted to 57.6%. Consider `Cc1ccc(CN(Cc2cccc(O)c2)/C(=N/c2ccc(F)c(Cl)c2)Sc2ccc(C)cc2)cc1` [Cmpd 414], for which, under setting [1], at 177.6 µg/mL the inhibition of growth was 49.1%.

`Cc1ccc(CN(Cc2cccc(O)c2)/C(=N/c2ccc(Cl)c([N+](=O)[O-])c2)Sc2ccc(C)cc2)cc1` [Cmpd 423] displayed an inhibition of growth at 177.6 µg/mL under setting [1] of 57.3%. `Cc1ccc(CN(Cc2cccc(O)c2)/C(=N/c2ccccc2[N+](=O)[O-])Sc2ccc(C)cc2)cc1` [Cmpd 426] registered an inhibition of growth at 177.6 µg/mL under setting [2] of 67.4%. Same read-out and setting: to `COc1ccc(C)cc1/N=C(\Sc1ccc(C)cc1)N(Cc1ccc(C)cc1)Cc1cccc(O)c1` [Cmpd 429] belongs 79.5%. As to `Cc1ccc(CN(Cc2cccc(O)c2)/C(=N\c2ccc(Cl)c(C(F)(F)F)c2)Sc2ccc(C)cc2)cc1` [Cmpd 433], 177.6 µg/mL produced 51.7% inhibition of growth under setting [1]. As for `Cc1ccc(CN(Cc2cccc(O)c2)/C(=N/Cc2ccc(F)cc2)Sc2cccc(C)c2)cc1` [Cmpd 444], under setting [1], testing at 177.6 µg/mL gave an inhibition of growth of 56.6%. Consider `Cc1ccc(CN(Cc2cccc(O)c2)/C(=N/c2ccc(C(F)(F)F)cc2)Sc2cccc(C)c2)cc1` [Cmpd 447], for which 177.6 µg/mL produced 99.5% inhibition of growth under setting [2]. As for `Cc1ccc(CN(Cc2cccc(O)c2)/C(=N/c2cc(Cl)cc(Cl)c2)Sc2cccc(C)c2)cc1` [Cmpd 453], at 177.6 µg/mL the inhibition of growth under setting [2] was 60.5%. Under setting [2], `Cc1ccc(CN(Cc2cccc(O)c2)/C(=N/c2ccc(Cl)c([N+](=O)[O-])c2)Sc2cccc(C)c2)cc1` [Cmpd 463] gave an inhibition of growth at 177.6 µg/mL of 86.7%. Under setting [2], `Cc1ccc(CN(Cc2cccc(O)c2)/C(=N/c2ccccc2[N+](=O)[O-])Sc2cccc(C)c2)cc1` [Cmpd 466] gave an inhibition of growth at 177.6 µg/mL of 69.7%. In the case of `COc1ccc(C)cc1/N=C(\Sc1cccc(C)c1)N(Cc1ccc(C)cc1)Cc1cccc(O)c1` [Cmpd 469], under setting [1], the inhibition of growth at 177.6 µg/mL turned out to be 53%. Consider `Cc1ccc(CN(Cc2cccc(O)c2)/C(=N\c2ccc(Cl)c(C(F)(F)F)c2)Sc2cccc(C)c2)cc1` [Cmpd 473], for which, under setting [2], the inhibition of growth at 177.6 µg/mL turned out to be 57.6%. As for `Cc1ccc(S/C(=N/c2ccc(C(F)(F)F)cc2)N(Cc2ccccc2)Cc2ccc(O)cc2)c(C)c1` [Cmpd 487], the inhibition of growth at 177.6 µg/mL under setting [2] was 82.8%. As for `Cc1ccc(S/C(=N\c2cc(Cl)cc(Cl)c2)N(Cc2ccccc2)Cc2ccc(O)cc2)c(C)c1` [Cmpd 493], under setting [1], the inhibition of growth at 177.6 µg/mL came to 55.6%.

In the case of `Cc1ccc(S/C(=N/c2ccc(Cl)c([N+](=O)[O-])c2)N(Cc2ccccc2)Cc2ccc(O)cc2)c(C)c1` [Cmpd 503], the inhibition of growth at 177.6 µg/mL under setting [1] is 57.3%. For the compound `Cc1ccc(S/C(=N/c2ccc(Cl)c(C(F)(F)F)c2)N(Cc2ccccc2)Cc2ccc(O)cc2)c(C)c1` [Cmpd 513], the inhibition of growth at 177.6 µg/mL under setting [1] was found to be 52.9%. In turn, `Cc1cccc(S/C(=N/Cc2ccccc2)N(Cc2cccc(O)c2)CC(C)C)c1` [Cmpd 521] came in with an inhibition of growth at 177.6 µg/mL under setting [1] of 50.6%. With `Cc1cccc(C/N=C(/Sc2cccc(C)c2)N(Cc2cccc(O)c2)CC(C)C)c1` [Cmpd 522], the inhibition of growth at 177.6 µg/mL under setting [1] was determined as 54.6%. In the case of `Cc1cccc(S/C(=N/Cc2ccc(F)cc2)N(Cc2cccc(O)c2)CC(C)C)c1` [Cmpd 524], at 177.6 µg/mL the inhibition of growth under setting [2] was 89.5%.

In the case of `Cc1cccc(S/C(=N/c2cccc(C(F)(F)F)c2)N(Cc2cccc(O)c2)CC(C)C)c1` [Cmpd 526], the inhibition of growth at 177.6 µg/mL under setting [1] stood at 50%. The compound `Cc1cccc(S/C(=N/c2ccc(C(F)(F)F)cc2)N(Cc2cccc(O)c2)CC(C)C)c1` [Cmpd 527] showed an inhibition of growth at 177.6 µg/mL under setting [2] of 96.4%.

Consider `Cc1cccc(S/C(=N/c2cc(Cl)cc(Cl)c2)N(Cc2cccc(O)c2)CC(C)C)c1` [Cmpd 533], for which testing at 177.6 µg/mL under setting [1] gave an inhibition of growth of 52%. With `COc1ccc(C)cc1/N=C(/Sc1cccc(C)c1)N(Cc1cccc(O)c1)CC(C)C` [Cmpd 549], the inhibition of growth at 177.6 µg/mL under setting [2] stood at 62.9%. On the same count and under the same terms, to `COCCN(Cc1ccc(O)cc1)/C(=N\c1cc(Cl)cc(Cl)c1)Sc1ccc(C)cc1` [Cmpd 653] belongs 80.2%. For `CCc1cccc(/N=C(/Sc2ccc(C)cc2)N(CCOC)Cc2ccc(O)cc2)c1` [Cmpd 658], the inhibition of growth at 177.6 µg/mL under setting [1] worked out at 53%.

Consider `COCCN(Cc1ccc(O)cc1)/C(=N\c1ccc(Cl)c([N+](=O)[O-])c1)Sc1ccc(C)cc1` [Cmpd 663], for which at 177.6 µg/mL the inhibition of growth under setting [1] was 54.8%. `COCCN(Cc1ccc(O)cc1)/C(=N\c1ccc(Cl)c(C(F)(F)F)c1)Sc1ccc(C)cc1` [Cmpd 673]: 177.6 µg/mL produced 72.8% inhibition of growth under setting [2]. Under setting [2], `COCCN(Cc1ccc(O)cc1)/C(=N\c1ccc(F)c(F)c1)Sc1ccc(C)cc1` [Cmpd 676] returned an inhibition of growth at 177.6 µg/mL of 87.5%. The compound `Cc1cccc(S/C(=N\Cc2ccc(F)cc2)N(CCc2ccc(Cl)cc2)Cc2cccc(O)c2)c1` [Cmpd 684] yielded an inhibition of growth at 177.6 µg/mL under setting [2] of 94.1%. Take `Cc1cccc(S/C(=N\c2cccc(C(F)(F)F)c2)N(CCc2ccc(Cl)cc2)Cc2cccc(O)c2)c1` [Cmpd 686]: testing at 177.6 µg/mL under setting [2] gave an inhibition of growth of 68.4%. Same read-out and setting: to `Cc1cccc(S/C(=N\c2ccc(F)c(Cl)c2)N(CCc2ccc(Cl)cc2)Cc2cccc(O)c2)c1` [Cmpd 694] belongs 62.5%; to `Cc1cccc(S/C(=N\c2ccccc2[N+](=O)[O-])N(CCc2ccc(Cl)cc2)Cc2cccc(O)c2)c1` [Cmpd 706], 63.6%. In turn, `COc1ccc(C)cc1/N=C(\Sc1cccc(C)c1)N(CCc1ccc(Cl)cc1)Cc1cccc(O)c1` [Cmpd 709] yielded an inhibition of growth at 177.6 µg/mL under setting [1] of 49.7%. For `CCCCN(Cc1cccc(O)c1)/C(=N\Cc1ccc(F)cc1)Sc1ccccc1` [Cmpd 724], 177.6 µg/mL produced 83.3% inhibition of growth under setting [2]. As to `CCCCN(Cc1cccc(O)c1)/C(=N\c1ccc(C(F)(F)F)cc1)Sc1ccccc1` [Cmpd 727], under setting [1], testing at 177.6 µg/mL gave an inhibition of growth of 56.3%. Consider `CCCCN(Cc1cccc(O)c1)/C(=N\c1cc(Cl)cc(Cl)c1)Sc1ccccc1` [Cmpd 733], for which the inhibition of growth at 177.6 µg/mL under setting [2] turned out to be 63.5%. For the compound `CCCCN(Cc1cccc(O)c1)/C(=N\c1ccc(F)c(Cl)c1)Sc1ccccc1` [Cmpd 734], 177.6 µg/mL produced 89.6% inhibition of growth under setting [2].

Under setting [2], `CCCCN(Cc1cccc(O)c1)/C(=N\c1ccc(Cl)c([N+](=O)[O-])c1)Sc1ccccc1` [Cmpd 743] had an inhibition of growth at 177.6 µg/mL of 64.2%.

Regarding `CCCCN(Cc1cccc(O)c1)/C(=N\c1ccc(Cl)c(C(F)(F)F)c1)Sc1ccccc1` [Cmpd 753], at 177.6 µg/mL the inhibition of growth under setting [2] was 66%. `CCCCN(Cc1cccc(O)c1)/C(=N\c1ccc(F)c(F)c1)Sc1ccccc1` [Cmpd 756] returned an inhibition of growth at 177.6 µg/mL under setting [2] of 71.9%.

As to `COc1cccc(CN(Cc2ccc(O)cc2)/C(=N/c2ccc(C(F)(F)F)cc2)Sc2cccc(OC)c2)c1` [Cmpd 767], testing at 177.6 µg/mL under setting [1] gave an inhibition of growth of 52.4%. Consider `COc1cccc(CN(Cc2ccc(O)cc2)/C(=N/c2cc(Cl)cc(Cl)c2)Sc2cccc(OC)c2)c1` [Cmpd 773], for which, under setting [2], testing at 177.6 µg/mL gave an inhibition of growth of 68.4%. Compound `COc1cccc(CN(Cc2ccc(O)cc2)/C(=N/c2ccc(Cl)c([N+](=O)[O-])c2)Sc2cccc(OC)c2)c1` [Cmpd 783] showed an inhibition of growth at 177.6 µg/mL under setting [1] of 54.5%. Under setting [1], `COc1cccc(CN(Cc2ccc(O)cc2)/C(=N\c2ccc(Cl)c(C(F)(F)F)c2)Sc2cccc(OC)c2)c1` [Cmpd 793] returned an inhibition of growth at 177.6 µg/mL of 52.4%. Consider `COc1cccc(CCN(Cc2cccc(O)c2)/C(=N/c2ccc(F)c(Cl)c2)Sc2ccccc2)c1` [Cmpd 814], for which the inhibition of growth at 177.6 µg/mL under setting [2] is 57.8%. Take `Cc1cccc(C/N=C(\Sc2ccccc2)N(Cc2cccc(O)c2)Cc2ccc(Cl)c(Cl)c2)c1` [Cmpd 842]: the inhibition of growth at 177.6 µg/mL under setting [1] stood at 49.3%.

Take `Oc1cccc(CN(Cc2ccc(Cl)c(Cl)c2)/C(=N/c2cccc(F)c2)Sc2ccccc2)c1` [Cmpd 843]: under setting [1], the inhibition of growth at 177.6 µg/mL was found to be 53.4%. The same measure, in the same setting: to `Oc1cccc(CN(Cc2ccc(Cl)c(Cl)c2)/C(=N/c2cccc(C(F)(F)F)c2)Sc2ccccc2)c1` [Cmpd 846] belongs 49.3%. Regarding `Oc1cccc(CN(Cc2ccc(Cl)c(Cl)c2)/C(=N/c2ccc(C(F)(F)F)cc2)Sc2ccccc2)c1` [Cmpd 847], the inhibition of growth at 177.6 µg/mL under setting [2] was 90.3%. On to `Oc1cccc(CN(Cc2ccc(Cl)c(Cl)c2)/C(=N/c2cccc(Cl)c2)Sc2ccccc2)c1` [Cmpd 852], for which at 177.6 µg/mL the inhibition of growth under setting [1] was 50%. Take `Oc1cccc(CN(Cc2ccc(Cl)c(Cl)c2)/C(=N/c2cc(Cl)cc(Cl)c2)Sc2ccccc2)c1` [Cmpd 853]: at 177.6 µg/mL the inhibition of growth under setting [2] was 60.2%. Under setting [1], `Oc1cccc(CN(Cc2ccc(Cl)c(Cl)c2)/C(=N/c2ccc(F)c(Cl)c2)Sc2ccccc2)c1` [Cmpd 854] gave an inhibition of growth at 177.6 µg/mL of 55.8%. For the compound `O=[N+]([O-])c1ccccc1/N=C(\Sc1ccccc1)N(Cc1cccc(O)c1)Cc1ccc(Cl)c(Cl)c1` [Cmpd 866], the inhibition of growth at 177.6 µg/mL under setting [2] is 60.8%. The same measure, in the same setting: the same measure for `COc1ccc(C)cc1/N=C(\Sc1ccccc1)N(Cc1cccc(O)c1)Cc1ccc(Cl)c(Cl)c1` [Cmpd 869]: 62.2%; for `COc1cccc(CCN(Cc2ccc(O)cc2)/C(=N/c2ccc(F)c(Cl)c2)Sc2ccccc2)c1` [Cmpd 894]: 57.7%.
